Entries after “also recorded” stand apart in the source; their conditions may differ.
Assays:
Type in all cases: physicochemical
[1] = Solubility in organic solvents quoted in competitive suspension equilibration studies; conditions: organic solvent or mixture
[2] = Solubility in Fasted State Simulated Intestinal Fluid (FaSSIF) and final pH in solution, salt screen of compound I-2; conditions: for Final pH: final pH in solution of the FaSSIF solubility sample
Protocol: (§1) The free base of Compound I-1 (compound I-2, 30 mg) was suspended in IPA (20 Vol., 600 μl at 50° C.). The suspensions were then cooled down to 5° C. at 0.1° C./min and were held at this temperature for 16 hrs. Stirring (500 rpm) was maintained throughout. Any gums that formed were maturated between 25 and 50° C. (4 hours at each temperature for 24 hrs). The suspensions were isolated by filtration under suction and air dried then analysed by XRPD. Any new patterns identified by XRPD were analysed further by NMR, TGA, DSC and stability at 40 C/75% RH for 1 week.
Several samples were analyzed for solubility in Fasted State Simulated Intestinal Fluid (FaSSIF) and final pH in solution.

[3] = Hygroscopicity suggested by Thermal Gravimetric Analysis (TGA) weight loss; conditions: suggested by TGA weight loss / 1H NMR solvent content
Protocol: Thermal Gravimetric Analysis (TGA): TGA data was collected on a TA Instruments Q5000 TGA. A predefined amount of the sample, 2.0 to 10.0 mg, was placed in an aluminum pan and heated at 10° C./minute from 40° C. to 300° C., or varied as experimentation dictated. A purge of dry nitrogen at 25 ml/minute was maintained over the sample. The instrument control and data acquisition are acquired using Q Advantage software release version 5.5.23. The data was processed and presented using the TA Universal Analysis 2000 software version 4.5A build 4.5.0.5.

[4] = Solubility assessment in solvents by aliquot addition (5-40 vol, 25° C., then heating); conditions: for solubility in the solvents tested (in words): 13 solvents, up to 40 vol; for Observation after treatment: 40 vol
Protocol: Compound II-1 (40 mg) was treated with an aliquot of solvent (200 μl for 5 vol, 400 μl for 10 vol, 800 μl for 20 vol) and left to stir at 25° C. for 15 minutes. After 15 minutes, suspensions were treated with another aliquot of solvent and left to stir for the same duration again. Any solutions were removed from stirring and further solvent additions. This procedure was repeated up to 40 vol.
At 40 vol, any remaining suspensions were heated to 40° C. at a rate of 10° C./min. Samples that remained as suspensions at 40° C. were moved to the maturation chamber (RT/50° C.) for 4 days. All solutions from solvent additions were heated to 50° C. before cooling to 5° C. at a rate of 0.1° C./min, then held at 5° C. overnight. […]

[5] = Storage at 40° C./75% RH for 7 days (one week), form checked by XRPD; conditions: 40° C./75% RH, one week (7 days)
Protocol: as §1, with “The” for “The free base of Compound I-1 (compound I-2, 30 mg) was suspended in IPA (20 Vol., 600 μl at 50° C.). The”

[6] = Solubility measurements in SGF, FeSSIF and FaSSIF with XRPD of residual solids
From the text: The results from the solubility measurements in simulated gastric fluid (SGF), simulated fed state conditions in the small intestines (FeSSIF), and simulated fasting state conditions in the small intestines fluid (FaSSIF) are summarised in Table 12. The salts show reduced solubility in SGF compared to the free form.
Crystalline FB Form A, HCl Form A, and the sufate salt Form A were scaled up for solubility analysis.
HCl Form A was successfully scaled up for solubility analysis.

[7] = listed as Compound III-1 Form A
[8] = listed as Compound III-1 Form B

Molecule C=C(C)C(=O)Nc1ccc(-c2c(-c3ccc(Oc4nccc(C)n4)c(F)c3)c3c(N)ncnc3n2C)cc1.Cl [Compound I-1, N-(4-(4-amino-5-(3-fluoro-4-((4-methylpyrimidin-2-yl)oxy)phenyl)-7-methyl-7H-pyrrolo[2,3-d]pyrimidin-6-yl)phenyl)methacrylamide hydrochloride] has a Solubility ([1]; ethanol) of 2300 µg/mL, a Solubility ([1]; methanol) of 18700 µg/mL and a Solubility ([2]; Fasted State Simulated Intestinal Fluid (FaSSIF), fassif, thermodynamic from solid, Fasted State Simulated Intestinal Fluid, solids from salt screen in IPA) of 5.1 µg/mL. The “Final pH” value [2] was 4.06.
In the case of C=C(C)C(=O)Nc1ccc(-c2c(-c3ccc(Oc4nccc(C)n4)c(F)c3)c3c(N)ncnc3n2C)cc1 [Compound I-3], the “Solubility in FaSSIF” value ([2]; Fasted State Simulated Intestinal Fluid, solids from salt screen in IPA, listed as HBr - Form A) is reported as 4.5 µg/mL and the “Final pH” value ([2]; listed as HBr - Form A) is reported as 5.5.
In the case of C=C(C)C(=O)Nc1ccc(-c2c(-c3ccc(Oc4nccc(C)n4)c(F)c3)c3c(N)ncnc3n2C)cc1 [Compound I-4], the “Solubility in FaSSIF” value ([2]; Fasted State Simulated Intestinal Fluid, solids from salt screen in IPA, listed as Sulfate - Form B) is reported as 1.2 µg/mL and the “Final pH” value ([2]; listed as Sulfate - Form B) is reported as 5.86.
With C=C(C)C(=O)Nc1ccc(-c2c(-c3ccc(Oc4nccc(C)n4)c(F)c3)c3c(N)ncnc3n2C)cc1 [Compound I-6] the “Solubility in FaSSIF” value ([2]; Fasted State Simulated Intestinal Fluid, solids from salt screen in IPA, listed as Mesylate - Form A) was 6.5 µg/mL and the “Final pH” value ([2]; listed as Mesylate - Form A) was 4.82.
For C=C(C)C(=O)Nc1ccc(-c2c(C3=CC[C@H](C(=O)N4CCCC4)CC3)c3c(N)ncnc3n2C)c(C)c1 [Compound II-1, (R)—N-(4-(4-amino-7-methyl-5-(4-(pyrrolidine-1-carbonyl)cyclohex-1-en-1-yl)-7H-pyrrolo[2,3-d]pyrimidin-6-yl)-3-methylphenyl)methacrylamide], the “hygroscopicity (in words)” value ([3]; listed as Compound 1 Pattern 2) was “hygroscopic”, the “hygroscopicity (in words)” value ([3]; listed as Compound II-1 Form A) was “slightly hygroscopic” and the “solubility (solvent volumes to give a clear solution)” value ([4]; 10% H2O/IPA, 25° C.) was 10 vol. For the same molecule, the “solubility in the solvents tested (in words)” value [4] was “reasonable solubility in polar solvents”, the “solubility (solvent volumes to give a clear solution)” value ([4]; THF, 25° C.) was 20 vol and the “solubility (solvent volumes to give a clear solution)” value ([4]; ethanol, 25° C.) was 20 vol. For the same molecule, the “XRPD after storage at 40° C./75% RH for 7 days” value ([5]; listed as Compound II-1 Form A) was “no change; also recorded: Unchanged” and the “XRPD after storage at 40° C./75% RH for 7 days” value ([5]; listed as Compound II-1 Form B) was “Unchanged”.
With C=C(C)C(=O)Nc1ccc(-c2c(C3=CC[C@H](C(=O)N4CCCC4)CC3)c3c(N)ncnc3n2C)c(C)c1.CS(=O)(=O)O [Compound II-5] the “hygroscopicity (in words)” value [3] was “hygroscopic” and the “XRPD after storage at 40° C./75% RH for 7 days” value [5] was “no change”.
With C#Cc1cc(OC)c(-c2c(-c3ccc(Oc4nccc(C)n4)c(F)c3)c3c(C)ncnc3n2C)cn1 [Compound III-1, 6-(6-ethynyl-4-methoxypyridin-3-yl)-5-(3-fluoro-4-((4-methylpyrimidin-2-yl)oxy)phenyl)-4,7-dimethyl-7H-pyrrolo[2,3-d]pyrimidine] the “hygroscopicity (in words)” value [3, 7] was “potentially hygroscopic”, the “hygroscopicity (in words)” value [3, 8] was “possibly hygroscopic” and the Observation after treatment ([4]; 2-Propanol, after maturation (RT/50° C.) 4 days) was “Suspension”. For the same molecule, the Observation after treatment ([4]; 10% Water/IPA, after maturation (RT/50° C.) 4 days) was “Suspension”, the Observation after treatment ([4]; 10% Water/MeCN, after cooling from 50° C. to 5° C.) was “Clear” and the “solubility (solvent volumes to give a clear solution)” value ([4]; 10% water/MeCN, 50° C.) was 40 vol. The “solubility in the solvents tested (in words)” value [4] was “low solubility”, the Observation after treatment ([4]; Acetone, after cooling from 50° C. to 5° C.) was “Very thin” and the Observation after treatment ([4]; Ethanol, after maturation (RT/50° C.) 4 days) was “Suspension”. For the same molecule, the Observation after treatment ([4]; Ethyl acetate, after maturation (RT/50° C.) 4 days) was “Suspension”, the Observation after treatment ([4]; Isopropyl acetate, after maturation (RT/50° C.) 4 days) was “Suspension” and the Observation after treatment ([4]; MEK, after maturation (RT/50° C.) 4 days) was “Suspension”. For the same molecule, the Observation after treatment ([4]; Methanol, after cooling from 50° C. to 5° C.) was “Very thin”, the Observation after treatment ([4]; TBME, after maturation (RT/50° C.) 4 days) was “Suspension” and the “solubility (solvent volumes to give a clear solution)” value ([4]; THF, 25° C.) was 40 vol. For the same molecule, the Observation after treatment ([4]; THF, after cooling from 50° C. to 5° C.) was “Clear”, the Observation after treatment ([4]; Water, after maturation (RT/50° C.) 4 days) was “Suspension” and the “solubility (solvent volumes to give a clear solution)” value ([4]; acetone, 50° C.) was 40 vol. The “solubility (solvent volumes to give a clear solution)” value ([4]; methanol, 50° C.) was 40 vol, the Observation after treatment ([4]; n-Heptane, after maturation (RT/50° C.) 4 days) was “Suspension” and the “XRPD of residual solids after solubility measurement” value ([6]; all media (SGF, FeSSIF, FaSSIF)) was “remained unchanged”. The “solubility in FaSSIF (in words)” value ([6]; simulated fasting state intestinal fluid) was “lowest solubility”, the “XRPD after storage at 40° C./75% RH for 7 days” value [5, 7] was “no change in form” and the “XRPD after storage at 40° C./75% RH for 7 days” value [5, 8] was “conversion to Form A (plus additional peaks)”. The “XRPD after storage at 40° C./75% RH for 7 days” value ([5]; listed as Compound III-1 Form C) was “no change in form”.
